According to patent EP1758924B1, “PEPTIDES ANTAGONISTS FOR […] SHOCK PROTEIN (HSP 16.3) OF MYCOBACTERIUM TUBERCULOSIS” (priority 2004, dated 2005):
pIC50, pKd: −log10 of the molar value. Several values for one entry are separate records, joined by “and”; a condition that tells them apart may be missing. Equal values may be shown once. Residues, ends and D or L forms follow the SMILES beside them.

Experiments:
[1] = molecular target: T1, Hsp16.3 (Mycobacterium tuberculosis, UniProt P9WMK1); test: Peptide inhibition assay for Hsp16.3 chaperon activity (heat-induced ADH aggregation, A360); assay type: biochemical; conditions: for pIC50: IC50 (concentration of peptide at which 50% inhibition of chaperon activity was observed), 5 µM ADH, 50°C, ADH:Hsp16.3 5:4, A360 at 1200 sec
T1 sequence (P9WMK1 whole entry, looked up): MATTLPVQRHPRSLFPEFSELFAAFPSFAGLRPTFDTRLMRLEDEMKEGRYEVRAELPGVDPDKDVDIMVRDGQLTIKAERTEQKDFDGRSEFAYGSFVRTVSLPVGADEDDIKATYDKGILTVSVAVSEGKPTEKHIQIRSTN
Source text: The binding of a peptide need not necessarily result in inhibition. Inhibition will happen only if binding leads to significant changes in the active site. […] A part of the invention is the development of a peptide inhibition assay for Hsp16.3. The method is based on aggregation based assays. The standard assay used for assaying the activity of alpha-crystallin like proteins is to study the protection it confers against heat induced aggregation of proteins, the aggregation activity being measured spectrophotometrically. Yeast alcohol dehydrogenase (ADH), purchased from Sisco Research Laboratory, Mumbai, India, is used for aggregation studies. Aggregation of 5 µM ADH at 50°C can be measured as an apparent optical density at 360 nm using a spectrophotometer equipped with a thermostated cuvette holder in a total reaction volume of 500 µl. The chaperon activity of Hsp16.3 can be determined by mixing ADH with Hsp16.3 at a molar ratio of 5:4 which is equivalent to a ratio of about 12:1 between ADH and Hsp16.3 assuming a nonameric structure of Hsp16.3 as the functional unit (Chang et al., 1996) and aggregation rates again determined spectrophotometrically. Then the same experiment can be repeated in the presence of increasing concentrations of peptide inhibitors.
A part of the invention is the peptide inhibition assay for Hsp16.3 comprising of heat treating ADH alone, ADH + Hsp16.3 and ADH + Hsp16.3 + 25, 50 and 100 µM peptide. When ADH is heated it aggregates and there is an increase of optical density. In the presence of Hsp16.3 aggregation is prevented, but in the presence of peptide aggregation is again observed if Hsp16.3 activity is inhibited. Aggregation of 5 µM ADH at 50°C was measured as an apparent optical density at 360 nm using Hitachi spectrophotometer equipped with a thermostated cuvette holder in a total reaction volume of 500 µl. The chaperon activity of Hsp16.3 was determined by mixing ADH with Hsp16.3 at a molar ratio of 5:4 and aggregation rates were again determined spectrophotometrically. Then the same experiment was performed in the presence of increasing concentrations of the Hsp16.3 binding peptides (Seq IDs 10 and 22) (Figure 2).
Aggregation assays were performed by heating 5 µM Alcohol dehydrogenase (ADH) to 50°C directly in a spectrophotometer using a thermostated cuvette holder in a total reaction volume of 500 µl. Absorbance was monitored at 360 nm (A360) for 1200 seconds and readings were taken at every 100 seconds interval. When the A360 values were plotted against time (black triangle) it was observed that absorbance increased with time reaching near saturation level at the1200 sec time point. The increase in absorbance indicates aggregation of ADH. […] However the same effect may be obtained if the peptide instead of inhibiting the activity of Hsp16.3 promotes the aggregation of ADH. To eliminate such a possibility a control experiment was done in which the peptide alone was added to ADH.
To obtain a more quantitative interpretation of the data the % residual chaperon activity of Hsp 16.3 in the presence of different concentrations of inhibitor was derived as follows, the A360 values at the saturation point (1200 secs) being taken into consideration.
The % chaperon activity was then plotted against peptide concentration (Fig. 2B). From the resulting curve it is apparent that chaperon activity decreases exponentially with increasing concentration of peptide. […]

[2] = molecular target: T2, human alphaB-crystallin (Homo sapiens, UniProt P02511); test: ADH aggregation assay with alphaB-crystallin instead of Hsp16.3 (specificity); assay type: biochemical; conditions: 25, 50, 100 µM peptide; ADH:alphaB-crystallin 5:4
T2 construct: expression vector from Dr. W.C; Boelens, University of Nijmegen
T2 sequence (P02511 1-175): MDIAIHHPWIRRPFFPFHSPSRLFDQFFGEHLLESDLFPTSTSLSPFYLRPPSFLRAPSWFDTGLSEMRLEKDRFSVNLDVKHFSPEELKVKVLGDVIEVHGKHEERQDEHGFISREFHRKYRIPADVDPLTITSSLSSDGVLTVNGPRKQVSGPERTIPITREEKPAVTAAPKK

[3] = molecular target: T1, Hsp16.3; test: biochemical; assay type: binding; conditions: fluoresceinated peptide 200 nM, 50 mM sodium phosphate buffer, pH 7.5, 300 mM NaCl, 25°C, single-site fit
[4] = molecular target: T1, Hsp16.3; test: NMR (TOCSY) comparison of amide proton chemical shifts of free peptide and peptide with Hsp16.3; assay type: binding; conditions: 0.1 mM protein, 2 mM peptide, 20 mM sodium phosphate pH 7.0, 250 mM NaCl, 4°C
Procedure: All NMR spectra were taken in a Bruker DRX-500 NMR spectrometer equipped with a Z-field gradient probe. All measurements were done in high precision 5-mm NMR tubes in 20 mM sodium phosphate buffer, pH 7.0, containing 250 mM NaCl in 90% H2O and 10% D2O. All NMR experiments were done at 4°C, unless stated otherwise. TOCSY spectra were measured using standard pulse sequences in the Bruker pulse library using WATERGATE water suppression method. Standard Bruker software (Xwin-NMR version 1.3) was used to acquire and process the NMR data. The NMR samples were adjusted to a protein concentration of 0.1 mM and a 20-fold ligand excess (2 mM) over binding sites was used throughout the studies.
The comparison of chemical shifts of amide protons of free peptide (Seq ID 10) (A) and peptide with Hsp16.3 protein (B). Resonance assignments are indicated with a one-letter amino acid code. All NMR spectra were taken in a Bruker DRX-500 spectrometer equipped with a Z-field gradient probe. All measurements were done in high precision 5-mm NMR tubes in 20 mM sodium phosphate buffer, pH 7.0, containing 250 mM NaCl in 90% H2O and 10% D2O at 4°C. TOCSY spectra were measured using standard pulse sequences in the Bruker pulse library using WATERGATE water suppression method. Standard Bruker software (Xwin-NMR version 1.3) was used to acquire and process the NMR data. […]

For CSCC[C@H](NC(=O)[C@@H](N)CCCCN)C(=O)N[C@@H](Cc1c[nH]cn1)C(=O)N[C@@H](C)C(=O)N[C@H](C(=O)N[C@@H](CC(N)=O)C(=O)N[C@@H](Cc1c[nH]cn1)C(=O)NCC(=O)NCC(=O)NCC(=O)N[C@@H](CO)C(N)=O)[C@@H](C)O [Seq ID 10, Lys-Met-His-Ala-Thr-Asn-His-Gly-Gly-Gly-Ser] (H-KMHATNHGGGS-NH2), the aggregation restored ([1]; 100 µM peptide, A360 at saturation point, ADH:Hsp16.3 5:4) was ~70%, the “inhibition of chaperon activity of Hsp16.3” value ([1]; 25, 50 and 100 µM peptide) was “dose dependent inhibition” and the “influence of peptide alone on aggregation of ADH (only peptide control)” value ([1]; ADH + 100 µM peptide, no Hsp16.3) was “does not influence the aggregation of ADH”. The pIC50 [1] was 4.33 and ~4.33, the “inhibition of chaperon activity of alphaB-crystallin” value [2] was “no inhibition” and the pKd [3] was ~4.30 and 4.30. For the same compound, the “chemical shift of amide protons on addition of Hsp16.3” value [4] was “significant chemical shift occured in both histidines”.

CC[C@H](C)[C@H](NC(=O)[C@@H]1CCCN1C(=O)[C@@H](NC(=O)[C@H](Cc1c[nH]cn1)NC(=O)[C@H](CCCNC(=N)N)NC(=O)[C@H](Cc1c[nH]cn1)NC(=O)[C@H](CCCCN)NC(=O)[C@H](Cc1ccccc1)NC(=O)[C@H](Cc1c[nH]cn1)NC(=O)[C@H](Cc1c[nH]cn1)NC(=O)[C@@H]1CCCN1C(=O)[C@@H](N)Cc1ccc(O)cc1)[C@@H](C)CC)C(=O)NCC(=O)NCC(=O)NCC(=O)N[C@@H](CO)C(N)=O [Seq ID 22, Tyr-Pro-His-His-Phe-Lys-His-Arg-His-Ile-Pro-Ile-Gly-Gly-Gly-Ser] (H-YPHHFKHRHIPIGGGS-NH2) was tested, and the pIC50 [1] was 4.24 and 4.28 and the pKd [3] was ~4.40 and 4.40.
